Results on 15 compounds are retold here after PMC6429502, “Synthesis and AChE-Inhibitory Activity of New Benzimidazole Derivatives” (Molecules, 2019).

The IC50 is the concentration needed to halve the response being measured. Low readings indicate greater potency, high ones weaker potency.

Each structure is given as a SMILES string. “Also recorded” adds a separate entry of the source. Read-outs that look alike come from different tables or passages of the source.

Common to all, as to assay type: biochemical
Experiment [1] deals with T1, AChE (Electrophorus electricus, UniProt O42275). Put plainly: AChE inhibition, modified Ellman's method. The note with it: for IC50: determined using 10^−3–10^−9 M concentrations. On the technique in general: Ellman's reagent forms a yellow product with free thiols.
A further experiment deals with BChE. As for the experimental part: New benzimidazole-triazole derivatives were designed, synthesized, and evaluated for their potential to inhibit AChE and BChE. First, all the synthesized compounds were tested at 10^−3 M and 10^−4 M concentrations.
The inhibitory activities of the compounds against AChE and BChE were determined in 96-well plates by modified Ellman’s method as defined in our previous studies. Donepezil and tacrine were used as reference drugs. A robotic system, Biotek Precision XS (Winooski, VT, USA), was used for all pipetting processes in the enzyme inhibition assay. Measurements of the percentage inhibition were carried out at 412 nm by using a BioTek-Synergy H1 microplate reader (Winooski, VT, USA). Inhibition potencies of synthesized compounds and IC50 of selected derivatives were calculated as reported previously.

Experiment [2] has as its target T1, AChE. Put plainly: Enzyme kinetic studies of AChE inhibition (Lineweaver-Burk plots, secondary plots). The note with it: 2 × IC50, IC50 and IC50/2, substrate 600 µM to 18.75 µM. As to the method: Enzyme kinetic studies were carried out in order to determine the mechanism of AChE inhibition. The type of inhibition was forecast using linear Lineweaver-Burk plots. […] The initial velocity measurements were recorded by using different substrate concentrations ranging from 600 µM to 18.75 µM for AChE enzyme. The secondary plots of the Km/Vmax (slope) versus varying concentrations were used to calculate Ki (intercept on the x-axis) values of compounds [35]. The graphical analyses of the steady-state inhibition data for AChE enzyme are shown in Figure 1 and Figure 2, respectively.
Reversible inhibition consists of the following subtypes: mixed-type, competitive, uncompetitive, or noncompetitive. These types of inhibition can be determined with the help of Lineweaver-Burk plots. […] Namely, both compounds can bind to the free enzyme or the enzyme-substrate complex. […] It is known that these interactions occur quickly and can be easily reversed. Therefore, the enzyme and inhibitor complex is rapidly degraded immediately prior to irreversible inhibition. […] As a result, enzyme kinetics studies have shown the biological importance of compounds 3d and 3h due to their mixed type forces, unlike irreversible enzyme inhibitors.
Enzyme kinetic studies were performed for compounds 3d and 3h in order to determine the inhibition type on AChE. […]

T1 sequence (O42275 24-633): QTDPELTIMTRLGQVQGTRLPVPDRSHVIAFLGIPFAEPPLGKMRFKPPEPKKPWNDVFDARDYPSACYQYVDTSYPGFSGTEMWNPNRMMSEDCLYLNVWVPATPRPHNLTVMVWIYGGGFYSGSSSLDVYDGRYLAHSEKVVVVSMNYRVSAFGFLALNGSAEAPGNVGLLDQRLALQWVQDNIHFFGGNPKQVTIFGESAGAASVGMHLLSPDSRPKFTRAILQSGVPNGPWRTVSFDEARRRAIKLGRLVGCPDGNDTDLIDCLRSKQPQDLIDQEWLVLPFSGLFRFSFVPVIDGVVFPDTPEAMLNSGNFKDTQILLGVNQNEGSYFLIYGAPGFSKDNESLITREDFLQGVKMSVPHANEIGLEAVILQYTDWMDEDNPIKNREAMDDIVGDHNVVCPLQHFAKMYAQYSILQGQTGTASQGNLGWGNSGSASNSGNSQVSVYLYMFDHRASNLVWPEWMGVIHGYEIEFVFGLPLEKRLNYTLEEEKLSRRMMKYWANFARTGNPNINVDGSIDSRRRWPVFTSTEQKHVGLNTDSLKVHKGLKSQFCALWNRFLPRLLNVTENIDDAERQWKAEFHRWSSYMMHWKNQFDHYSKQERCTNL

For the compound `CCn1c(SCC(=O)c2ccc(Br)cc2)nnc1-c1ccc(-c2nc3cc(Cl)ccc3[nH]2)cc1` [3f, 2-(4-(4-Ethyl-5-(2-(4-bromophenyl)-2-oxo-ethylthio)-4H-1,2,4-triazol-3yl)-phenyl)-5(6)-chloro-1H-benz-imidazole], the “% Inhibition AChE” value is listed as 47.22 ± 0.67% at AChE [1] (10^−3 M) and 24.08 ± 0.48% at AChE [1] (10^−4 M). Moreover, the “% Inhibition BChE” value came out at 29.15 ± 0.59% in the experiment on BChE (10^−3 M) and 17.88 ± 0.40% in the experiment on BChE (10^−4 M).
For `CCn1c(SCC(=O)c2ccc(O)c(O)c2)nnc1-c1ccc(-c2nc3cc(Cl)ccc3[nH]2)cc1` [3h, 2-(4-(4-Ethyl-5-(2-(3,4-dihydroxyphenyl)-2-oxo-ethylthio)-4H-1,2,4-triazol-3yl)-phenyl)-5(6)-chloro-1H-benzimidazole], on AChE [1] (10^−3 M), the “% Inhibition AChE” value turned out to be 98.25 ± 1.12%. The “% Inhibition of AChE” value is 90.23 ± 1.03% on AChE [1] (10^−5 M); 81.25 ± 1.08% on AChE [1] (10^−6 M); 65.32 ± 0.97% on AChE [1] (10^−7 M); 44.28 ± 0.71% on AChE [1] (10^−8 M); 17.20 ± 0.58% on AChE [1] (10^−9 M). Moreover, the “type of AChE inhibition” value on AChE [2] is “mixed type inhibition; also recorded: reversible inhibitors; also recorded: reversible and mixed-type”. Moreover, the “% Inhibition BChE” value in the experiment with BChE (10^−3 M) was determined as 61.26 ± 0.90%; with BChE (10^−4 M), 35.20 ± 0.42%.
Take `CCn1c(SCC(=O)c2ccc(C#N)cc2)nnc1-c1ccc(-c2nc3cc(Cl)ccc3[nH]2)cc1` [3e, 2-(4-(4-Ethyl-5-(2-(4-cyanophenyl)-2-oxo-ethylthio)-4H-1,2,4-triazol-3yl)-phenyl)-5(6)-chloro-1H-benz-imidazole]: the “% Inhibition AChE” value at AChE [1] (10^−3 M) is 77.29 ± 1.06%; at AChE [1] (10^−4 M) it was 41.22 ± 0.84%. The figures for the “% Inhibition BChE” value in the experiment on BChE (10^−3 M) and in the experiment on BChE (10^−4 M) were 38.22 ± 0.63% and 22.41 ± 0.47%, respectively.
For `Cn1c(SCC(=O)c2ccc(C#N)cc2)nnc1-c1ccc(-c2nc3cc(Cl)ccc3[nH]2)cc1` [3a, 2-(4-(4-Methyl-5-(2-(4-cyanophenyl)-2-oxo-ethylthio)-4H-1,2,4-triazol-3yl)-phenyl)-5(6)-chloro-1H-benz-imidazole] the same measures were 68.18 ± 1.05%, 47.26 ± 0.62%, 40.28 ± 0.98% and 25.13 ± 0.56%.
Consider `Cc1ccc(C(=O)CSc2nnc(-c3ccc(-c4nc5cc(Cl)ccc5[nH]4)cc3)n2C)cc1` [3c, 2-(4-(4-Methyl-5-(2-(4-methylphenyl)-2-oxo-ethylthio)-4H-1,2,4-triazol-3yl)-phenyl)-5(6)-chloro-1H-benz-imidazole], for which the “% Inhibition AChE” value on AChE [1] (10^−3 M) is on record as 39.18 ± 0.71%; at AChE [1] (10^−4 M) it was 17.89 ± 0.54%. In addition, the “% Inhibition BChE” value with BChE (10^−3 M) stood at 26.11 ± 0.74%; in the experiment with BChE (10^−4 M), 20.21 ± 0.61%.
Consider `Cn1c(SCC(=O)c2ccc(O)c(O)c2)nnc1-c1ccc(-c2nc3cc(F)ccc3[nH]2)cc1` [3l, 2-(4-(4-Methyl-5-(2-(3,4-dihydroxyphenyl)-2-oxo-ethylthio)-4H-1,2,4-triazol-3yl)-phenyl)-5(6)-fluoro-1H-benzimidazole], for which, at AChE [1] (10^−3 M), the “% Inhibition AChE” value turned out to be 94.58 ± 1.74%. The “% Inhibition of AChE” value at AChE [1] (10^−5 M) is on record as 73.18 ± 1.17%; on AChE [1] (10^−6 M), 68.20 ± 0.97%; at AChE [1] (10^−7 M), 48.11 ± 0.61%; on AChE [1] (10^−8 M) it was 32.29 ± 0.58%; at AChE [1] (10^−9 M), 18.77 ± 0.37%. The same compound displayed a concentration for half-maximal inhibition (IC50) against AChE [1] of 169 ± 7.2 nM. For the same compound, the figures for the “% Inhibition BChE” value in the experiment with BChE (10^−3 M) and in the experiment on BChE (10^−4 M) were 55.43 ± 0.47% and 29.88 ± 0.38%, respectively.
Turning to `Cn1c(SCC(=O)c2ccc(Br)cc2)nnc1-c1ccc(-c2nc3cc(F)ccc3[nH]2)cc1` [3j, 2-(4-(4-Methyl-5-(2-(4-bromophenyl)-2-oxo-ethylthio)-4H-1,2,4-triazol-3yl)-phenyl)-5(6)-fluoro-1H-benz-imidazole], the “% Inhibition AChE” value amounted to 48.51 ± 0.88% at AChE [1] (10^−3 M) and 18.39 ± 0.60% on AChE [1] (10^−4 M). Also, the “% Inhibition BChE” value is 29.64 ± 0.87% in the experiment on BChE (10^−3 M) and 21.44 ± 0.70% with BChE (10^−4 M).
As to `CCn1c(SCC(=O)c2ccc(C)cc2)nnc1-c1ccc(-c2nc3cc(F)ccc3[nH]2)cc1` [3o, 2-(4-(4-Ethyl-5-(2-(4-methylphenyl)-2-oxo-ethylthio)-4H-1,2,4-triazol-3yl)-phenyl)-5(6)-fluoro-1H-benz-imidazole], the results for the “% Inhibition AChE” value at AChE [1] (10^−3 M) and at AChE [1] (10^−4 M) were 28.06 ± 0.33% and 19.22 ± 0.30%, respectively. Also, the “% Inhibition BChE” value amounted to 25.99 ± 0.38% with BChE (10^−3 M) and 20.08 ± 0.46% with BChE (10^−4 M).
The corresponding values for `Cn1c(SCC(=O)c2ccc(C#N)cc2)nnc1-c1ccc(-c2nc3cc(F)ccc3[nH]2)cc1` [3i, 2-(4-(4-Methyl-5-(2-(4-cyanophenyl)-2-oxo-ethylthio)-4H-1,2,4-triazol-3yl)-phenyl)-5(6)-fluoro-1H-benz-imidazole] are 61.22 ± 1.02%, 38.28 ± 0.67%, 43.51 ± 0.78% and 18.49 ± 0.50%.
For `CCn1c(SCC(=O)c2ccc(C#N)cc2)nnc1-c1ccc(-c2nc3cc(F)ccc3[nH]2)cc1` [3m, 2-(4-(4-Ethyl-5-(2-(4-cyanophenyl)-2-oxo-ethylthio)-4H-1,2,4-triazol-3yl)-phenyl)-5(6)-fluoro-1H-benz-imidazole] the same measures were 59.03 ± 0.88%, 39.26 ± 0.46%, 48.11 ± 0.38% and 20.66 ± 0.45%.
As for `CCn1c(SCC(=O)c2ccc(C)cc2)nnc1-c1ccc(-c2nc3cc(Cl)ccc3[nH]2)cc1` [3g, 2-(4-(4-Ethyl-5-(2-(4-methylphenyl)-2-oxo-ethylthio)-4H-1,2,4-triazol-3yl)-phenyl)-5(6)-chloro-1H-benz-imidazole], the figures for the “% Inhibition AChE” value on AChE [1] (10^−3 M) and on AChE [1] (10^−4 M) were 37.20 ± 0.68% and 18.33 ± 0.38%, respectively. Besides, the “% Inhibition BChE” value turned out to be 31.89 ± 0.99% in the experiment with BChE (10^−3 M) and 24.75 ± 0.95% in the experiment with BChE (10^−4 M).
In the case of `CCn1c(SCC(=O)c2ccc(O)c(O)c2)nnc1-c1ccc(-c2nc3cc(F)ccc3[nH]2)cc1` [3p, 2-(4-(4-Ethyl-5-(2-(3,4-dihydroxyphenyl)-2-oxo-ethylthio)-4H-1,2,4-triazol-3yl)-phenyl)-5(6)-fluoro-1H-benzimidazole], the “% Inhibition AChE” value on AChE [1] (10^−3 M) stood at 87.26 ± 1.17%. In addition, the “% Inhibition of AChE” value at AChE [1] (10^−5 M) came out at 77.48 ± 1.98%; on AChE [1] (10^−6 M), 71.62 ± 1.08%; at AChE [1] (10^−7 M) it was 47.83 ± 0.97%; at AChE [1] (10^−8 M), 39.33 ± 0.67%; on AChE [1] (10^−9 M), 15.47 ± 0.64%. Half-maximal inhibition against AChE [1] (IC50) was put at 140 ± 5.1 nM. Further, the “% Inhibition BChE” value with BChE (10^−3 M) is reported as 53.19 ± 0.46%; with BChE (10^−4 M), 31.44 ± 0.38%.
Regarding `Cn1c(SCC(=O)c2ccc(Br)cc2)nnc1-c1ccc(-c2nc3cc(Cl)ccc3[nH]2)cc1` [3b, 2-(4-(4-Methyl-5-(2-(4-bromophenyl)-2-oxo-ethylthio)-4H-1,2,4-triazol-3yl)-phenyl)-5(6)-chloro-1H-benz-imidazole], the “% Inhibition AChE” value on AChE [1] (10^−3 M) is 44.20 ± 0.87%; at AChE [1] (10^−4 M), 26.18 ± 0.63%. In addition, the “% Inhibition BChE” value came out at 28.15 ± 0.97% in the experiment with BChE (10^−3 M) and 18.42 ± 0.88% in the experiment with BChE (10^−4 M).
The corresponding values for `CCn1c(SCC(=O)c2ccc(Br)cc2)nnc1-c1ccc(-c2nc3cc(F)ccc3[nH]2)cc1` [3n, 2-(4-(4-Ethyl-5-(2-(4-bromophenyl)-2-oxo-ethylthio)-4H-1,2,4-triazol-3yl)-phenyl)-5(6)-fluoro-1H-benz-imidazole] are 49.27 ± 0.55%, 30.21 ± 0.49%, 27.10 ± 0.53% and 18.77 ± 0.42%.
The corresponding values for `Cc1ccc(C(=O)CSc2nnc(-c3ccc(-c4nc5cc(F)ccc5[nH]4)cc3)n2C)cc1` [3k, 2-(4-(4-Methyl-5-(2-(4-methylphenyl)-2-oxo-ethylthio)-4H-1,2,4-triazol-3yl)-phenyl)-5(6)-fluoro-1H-benz-imidazole] are 42.29 ± 0.71%, 27.88 ± 0.67%, 36.17 ± 0.93% and 21.16 ± 0.97%.
